Measurements: PMC11603075 (Communications Biology, 2024)

How the values were obtained:
Assay type in all cases: biochemical
KDM4E [1] = molecular target: T1, KDM4E (Homo sapiens, UniProt B2RXH2); assay: Specific hydroxylation activity of KDM4E; conditions: for extent of hydroxylation (in words): KDM4E, relative to H2a(1–20)
T1 construct: KDM4E1–337; made in house; host or cells: E. coli
T1 sequence (B2RXH2 1-337): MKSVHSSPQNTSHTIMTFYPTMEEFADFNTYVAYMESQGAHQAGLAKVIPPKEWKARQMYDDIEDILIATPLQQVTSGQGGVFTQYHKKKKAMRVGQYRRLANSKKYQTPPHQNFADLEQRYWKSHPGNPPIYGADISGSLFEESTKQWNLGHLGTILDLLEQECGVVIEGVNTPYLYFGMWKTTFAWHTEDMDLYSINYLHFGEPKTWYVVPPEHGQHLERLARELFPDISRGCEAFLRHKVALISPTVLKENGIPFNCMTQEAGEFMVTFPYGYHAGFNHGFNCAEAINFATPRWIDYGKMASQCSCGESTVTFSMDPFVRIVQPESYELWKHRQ
Method: (§1) Fig. 3 KDM4E-catalysed hydroxylation occurs at Arg-20 on histone H2a peptide. a LC–MS/MS analysis of H2a(1–20) after KDM4E treatment. Two potential hydroxylation sites, R17 and R20, were identified, with the latter more likely (Supplementary Fig. 9). b Peptide variant studies support Arg-20 hydroxylation; specific activities: H2a(1–20), 0.65 nmol min^−1 mg^−1 SD: 0.073; H2a(1–20) with a C-terminal carboxylic acid (indicated with an -OH), no activity; H2a(1–20)R20A, no activity; H2a(1–20)R20K*, no activity; H2a(1–20)R20Kme3*, 0.44 nmol min^−1 mg^−1 SD: 0.04; H2a(1–20)R3me2a*, 0.51 nmol min^−1 mg^−1 SD: 0.05; H2a(1–20)R3A, 0.37 nmol min^−1 mg^−1 SD: 0.002; H2a(1–21)*, 0.65 nmol min^−1 mg^−1 SD 0.02; H2a(1–25, 0.35 nmol min^−1 mg^−1 SD: 0.044; and H2a(10–29), 0.02 nmol min^−1 mg^−1 SD: 0.013. Measurements employed MALDI–TOF MS except when labelled with*, which employed LC–MS (Supplementary Fig. 10 for representative MS data). n = 3 independent assays. c KDM, RDM and hydroxylation (+16 Da) activities of KDM4E are sequence and context dependent. Histone peptides (H2a, H3, H4) and variants (wild type residue in red, replaced with either K, Kme3, R or Rme2a) were incubated with KDM4E and analysed on MALDI–TOF MS. KDM, RDM and hydroxylation (+16 Da) were detected in some but not all peptides (Supplementary Fig. 10 for representative MS data). (−) No mass changes observed. n = 3 independent assays. See Supplementary Table 6 for conditions. TEXT PRINTED IN THE PICTURE: (c) H2a: K/R replacement K: -; K/R replacement Kme3: KDM/ROH; K/R replacement R: ROH; K/R replacement Rme2a: KDM/ROH | (c) H3: K/R replacement K: -; K/R replacement Kme3: KDM; K/R replacement R: -; K/R replacement Rme2a: RDM | (c) H4: K/R replacement K: -; K/R replacement Kme3: -; K/R replacement R: -; K/R replacement Rme2a: RDM DOUBTS OF THE COPYIST ABOUT THIS PICTURE: Panel c: the table cells are qualitative activity classes (KDM, RDM, ROH, -) for peptide variants, not numbers; it is uncertain whether they count as results. / Panel b: the bar chart prints no values beside the bars, so nothing was taken from it.
(§2) MS-based screening assays with peptides and calf thymus histones were as reported; see Supplementary Table 6 for conditions. Time course assays were based on reported procedures. In brief, equal volumes of the enzyme and substrate solutions were combined to initiate the reaction; 10 µL of 2% (v/v) formic acid (HCOOH) in ddH2O or 100% methanol was added to 10 µL of the reaction mixture to quench reactions at different time points. Unless otherwise stated, time course assays were carried out in triplicate. In some cases, LC–MS was used instead of MALDI-TOF MS to avoid a MALDI matrix induced artefact with the hydroxylated product (Supplementary Fig. 16).
Data collected from time course assay(s) were used to plot the % conversion vs time (min) using GraphPad Prism5 version 5.04; the resultant slopes were used to fit a line with linear regression to the first-order region of the reaction. The resultant gradient was then converted from % product formation min^−1 to amount of peptide converted (demethylation and / or hydroxylation) in µM.
Supplementary Figure 17 Comparison of specific hydroxylation activities of KD M4E with H2a(1–20) when anal ysed by MALDI-TO F MS or LC–MS. Comparison of specific activities for KDM4E catalysed hydroxylation of H2a(1–20) when analysed with MALDI-TOF MS or LC–MS ([…] SD: 0.073 and 0.65 nmol·min−1·mg− 1 SD: 0.01 respectively). n = 3 (independent assays). See Supplementary Table 6 for assay […]
(also on this page, place not known: KDM4E H2a(1 –20) analysed MALDI -TOF LC –MS nmol·min −1·mg−1 nmol·min−1·mg−1 0.8specific activity (nmol·min-1·mg-1)) […]
[ E nz ym e] [Peptide] [2OG] [Ascorbate] [(NH4)2F e(S O4)2] [TCEP] Buffer pH7.5 Enzyme Cognate substrate (mM) (mM) (mM) (mM) (mM) (mM) [HE PE S]
Supplementary Table 6 Summary of MS assay conditions for substrate screening. These conditions […]

KDM4E [2] = molecular target: T1, KDM4E; assay: KDM, RDM and hydroxylation (+16 Da) activities of KDM4E with histone peptide variants by MS; conditions: MALDI–TOF or LC–MS, n = 3
Method: as §1, with “(−) No mass changes observed. n = 3 independent assays. See Supplementary Table 6 for conditions. TEXT PRINTED IN THE PICTURE: (c) H2a: K/R replacement K: -; K/R replacement Kme3: KDM/ROH; K/R replacement R: ROH; K/R replacement Rme2a: KDM/ROH | (c) H3: K/R replacement K: -; K/R replacement Kme3: KDM; K/R replacement R: -; K/R replacement Rme2a: RDM | (c) H4: K/R replacement K: -; K/R replacement Kme3: -; K/R replacement R: -; K/R replacement Rme2a: RDM DOUBTS OF THE COPYIST ABOUT THIS PICTURE: Panel c: the table cells are qualitative activity classes (KDM, RDM, ROH, -) for peptide variants, not numbers; it is uncertain whether they count as results. / Panel b: the bar chart prints no values beside the bars, so nothing was taken from it.” left out

KDM4E [3] = molecular target: T1, KDM4E; assay: MALDI–TOF MS demethylation/+16 Da assay, KDM4E; conditions: 60 min, 2 µM KDM4E, 10 µM peptide
Source text: Fig. 2 Histone H2a fragments are KDM5 and KDM4 substrates. […] See Supplementary Table 6 and Supplementary Fig. 2 for assay conditions and quantification, respectively. […] 0-minute MS spectrum in black, 60/90-minute spectrum in red.
as §2, with “16). […]” for “16).”
Supplementary Figure 2 Histone H2a peptide fragments are substrates of KDM4s and KDM5s.
2 for representative corresponding MALDI–TOF MS traces. Bar graphs comparing % product format ion (+16 Da and demethylation) of H2a(1–20)R3me2a by (a) K DM5 A–D (after 90 minutes) and (b) KDM4A–E ( a ft er 60 minutes), analysed by MALDI– TOF MS. n = (a) 2, (b) 3 (independent assays). See Supplementary Table 6 for assay condit ions. See Figure S13 A 1 for a positive control. […]

[4] = MALDI–TOF MS, mean of n = 3, SD: H2a(1–20) 0.073, R3A 0.002, H2a(1–25) 0.044, H2a(10–29) 0.013

Substance	specific activity (hydroxylation) (KDM4E [1]; Figure 3b, MALDI–TOF MS, replicate 1) [nmol/min/mg]	specific activity (hydroxylation) (KDM4E [1]; Figure 3b, MALDI–TOF MS, replicate 2) [nmol/min/mg]	extent of hydroxylation (in words) (KDM4E [1])	specific activity (hydroxylation) (KDM4E [1]; [4])	+16 Da mass shift (hydroxylation) (KDM4E [2])	specific activity (hydroxylation) (KDM4E [1]; Figure 3b, LC–MS (*), replicate 1) [nmol/min/mg]	specific activity (hydroxylation) (KDM4E [1]; Figure 3b, LC–MS (*), replicate 2) [nmol/min/mg]	specific activity (hydroxylation) (KDM4E [1]; Figure 3b, LC–MS (*), replicate 3) [nmol/min/mg]	mass shift (KDM4E [2])	+16 Da mass shift (KDM4E [3])
Ac - SGR GKQ GGKAR AKAKT R SSR AGL Q F [H2a(1–25)]	0.3027	0.3905	lower	0.35 nmol/min/mg	+16 Da mass shift					
Ac - SGR GKQ GGKAR AKAKT R SSR - O H [H2a(1–20)-OH, H2a(1–20) with a C-terminal carboxylic acid]			no activity was observed	no activity		0	0	0	no mass shift	
H2a(1–20)R3me1: H2a(1–20) mono-methylated at Arg-3										A +16 Da mass shift occurs
